Read-outs that look alike come from different tables or passages of the source.

In general, IC50 refers to the concentration that gives 50% inhibition.

Common to all, as to assay: Long-term proliferation (LTP) assay, CellTiterGlo (Example 103)
On the technique in general: In ATP-based viability assays light output follows the ATP content of the culture.

For experiment [1], the system named is HL-60 cells. Format: cell-based. The conditions noted are these: for IC50: Homo sapiens. As to the method: (§1) The day of the experiment (TO) all the cell line suspensions were counted by Cell Viability Analyser, Vi-CELL and properly diluted with fresh medium to obtain the cell density reported in the Test System paragraph.
(§2) Cells were tested after 4 passages after thawing.
(§3) 200 μL/well and 150 μL/well of cell suspension were added into the 0.4 µL/well and 0.3 μL/well compound plates, respectively. • Cell plate containing 200 μL/well suspension was incubated at 37° C. in a humidified incubator with 5% CO2. • From each well of the 150 µL/well cell assay plate, 100 μL were harvested and transferred into a 96-well Optiplate (Perkin Elmer, Cat. n. 6005290) and cell viability was measured as described in 4.3 paragraphs (TO). • After four days in culture (T4) 150 μL/well of fresh medium were added into a new […] copy compound plate. • From each well of the 200 μL/well cell assay plate: • 100 μL were sampled for the cell viability measurement as described in 4.3 paragraphs (T4). • 50 μL were harvested and added to the 150 μL/well compound plate prepared as described in the first point to dilute 1:4 the cell suspension. • The cell assay plate diluted and containing 200 µL/well suspension were incubated at 37° C. in a humidified incubator with 5% CO2.
(§4) At T7-T11-T14 it was proceeded as described in T4, with the exception that no further cell dilution was carried out at T14.
(§5) Plates containing the samples to be tested were equilibrated at room temperature for approximately 30 min and then 30 μL/well of the Promega CellTiterGlo® reagent were added. Contents will be mixed for 5 min on an orbital shaker to induce cell lysis and then incubated at room temperature for an additional 10 min to stabilize the luminescent signal.
(§6) Luminescence was read by using VictorV (Perkin Elmer) multilabel plate reader using the standard protocol for luminescence in 96 well plate.
(§7) Data were expressed as % of inhibition compared to the 0.2% DMSO negative control, and was calculated as follows: % inhibition=100−[(RLU sample)×100/(RLU average controls*)] • *cells containing 0.2% DMSO
(§8) CRCs were analysed by GraphPad and IC50 values were calculated by non-linear regression using 4 parameter-logistic equation. IC50 (M) values were reported in the final data table.

In experiment [2] the test system is RS4-11 (MLL-AF4) cells. It is filed as cell-based. The conditions noted are these: for IC50: Homo sapiens, RS4-11 (MLL-AF4), LTP assay. As to the method:
as §1, §2, §3, §4, §5, §6, §7, §8

For experiment [3], the system named is MOLM-13 (MLL-AF9) cells. It is filed as cell-based, human. The conditions noted are these: for IC50: Homo sapiens, MOLM-13 (MLL-AF9), LTP assay. The procedure: as §1, §2, §3, §4, §5, §6, §7, §8
In experiment [4] the test system is MV4-11 (MLL-AF4) cells. Format: cell-based, human. The settings on record: for IC50: Homo sapiens, MV4-11 (MLL-AF4), LTP assay. As to the method: as §1, §2, §3, §4, §5, §6, §7, §8
[5] abbreviates: 96 h, Day 4, read-out: Day 4 IC50.
Setting [6] is: 168 h, Day 7, read-out: Day 7 IC50.
Setting [7] is: 264 h, Day 11, read-out: Day 11 IC50.
The mark [8] stands for this setting: 336 h, Day 14, read-out: Day 14 IC50.

As to `C=CC(=O)NC1CCCN(Cc2ccnc(C(=O)Nc3ccc(-c4cc5c(N6CCOCC6)ncnc5[nH]4)cc3)c2)C1` (stereo not shown) [Compound 10], the IC50 in experiment [1] (96 h, Day 4, LTP assay, read-out: Day 4 IC50) came to 430 nM; in experiment [1] (168 h, Day 7, LTP assay, read-out: Day 7 IC50), 260 nM; in experiment [1] (264 h, Day 11, LTP assay, read-out: Day 11 IC50), 290 nM; in experiment [1] (336 h, Day 14, LTP assay, read-out: Day 14 IC50), 270 nM; in experiment [2] (setting [5]), 500 nM; in experiment [2] (setting [6]) it was 470 nM. In addition, the IC50 in experiment [2] (setting [7]) was > 5000 nM; in experiment [3] (setting [5]), 260 nM; in experiment [3] (setting [6]), 280 nM; in experiment [3] (setting [7]) it was 240 nM; in experiment [3] (setting [8]) it was 230 nM; in experiment [4] (setting [5]) it was 460 nM. The values for the IC50 in experiment [4] (setting [6]), in experiment [4] (setting [7]) and in experiment [4] (setting [8]) were 290 nM, 220 nM and 200 nM, respectively. In addition, the “effect on cell viability at T4” value was “fully inhibited” in experiment [1] (T4, increasing concentrations); “fully inhibited” in experiment [2] (RS4;11, T4, increasing concentrations); “fully inhibited” in experiment [3] (MOLM-13, T4, increasing concentrations); “fully inhibited” in experiment [4] (MV4-11, T4, increasing concentrations).

Source of the values: patent publication US12116371B2, “Substituted pyridines as irreversible inhibitors of menin-MLL interaction” (BIOMEA FUSION, INC., priority 2018, dated 2024).
